The values below come from a melting point compilation (Tetko et al.; mined from patent text by program, amines drawn as free bases though some values may be those of a salt).

Molecules are shown by their SMILES.

`COC(=O)c1ccc2c(oc3ccccc32)c1C(=O)OC`: the melting point (as a rule, the temperature of the solid-liquid transition) stood at 123 °C. Compound `O=C1NC2(CCCC2)CCCC1Cl` (centres undefined) gave a melting point of 109 to 111 °C. As for `CC(=O)OCC1OC(n2cc(C(N)=S)nn2)C(OC(C)=O)C1OC(C)=O` (centres undefined), the figure is 110 to 112 °C. As for `Cc1cccc(CC(=O)O)c1OCc1nc(OC(C)C)c(C(=O)NCc2ccc(Cl)cc2Cl)s1`, the figure is 125 to 126 °C. Compound `COc1cc2c(cc1OC)CN(c1nc(Cl)nc(N3CCc4cc(OC)c(OC)cc4C3)n1)CC2` came in with a melting point of 149 to 151 °C. In the case of `Cc1ccc(O)c(NC(=O)c2cc(C)sc2Br)c1` it was 173 to 175 °C.

The compound `CN1C(=O)C(c2ccc(OC(F)F)cc2)(c2cccc(CCCC#N)c2)N=C1N` (centres undefined) displayed a melting point of 75 °C. In turn, `CC(=O)c1cc2cccc(OC3SCC(O)C(O)C3O)c2o1` (centres undefined) showed a melting point of 116 to 120 °C.

Consider `CCCCCCC[C@H]1CC[C@H](CCc2ccc(-c3ccc(Br)cc3F)cc2)CC1`, for which the melting point was 54 °C.

`CCNC(=O)c1nc(-c2ccc(C)c(C)c2)n(-c2cc(Cl)ccc2C)c1-c1cccc(Cl)c1` gave a melting point of 141 to 143 °C. For `COc1ccc(S(=O)(=O)N2c3ccccc3-c3ccc(F)cc3[C@@H]2C)cc1`, the melting point fell in the range of 197 to 198 °C. As for `COc1cc2c(=O)n(CCN3CCN(C)CC3)c3c4cc5c(cc4ncc3c2cc1OC)OCO5`, the melting point is 244 to 246 °C. Compound `CCOc1nn(Cc2ccnc(OCc3nc(-c4ccco4)oc3C)c2)cc1CCC(=O)O` registered a melting point of 138 to 139 °C. As for `Cn1nc(C(F)(F)F)cc1Oc1cc(C#N)cc(Oc2cc(C(F)(F)F)nn2C)n1`, the figure is 140 °C; as for `COC(=O)c1c(C(=O)OC)c2sc3ccccc3n2c1-c1ccc(OC)cc1`, 167 to 168 °C; as for `CCCCc1nc2cc(Cl)cc(C(=O)O)c2n1Cc1ccccc1Cl`, 261 to 262 °C.

Turning to `C=CCNc1nc(NCCCC)c2scc(C)c2n1`, the melting point was 68 to 70 °C.

Regarding `O=C(O)c1ccc(NC(=O)c2ccccc2-c2ccccc2)nc1`, the melting point fell in the range of 215 to 217 °C. `CCOC(=O)C(C)Sc1ccc(-c2nc(=O)c3ccccc3s2)cn1` (centres undefined): the melting point was 116 °C.

The compound `CC(C(=O)O)c1ccc(-n2cccn2)cc1` (centres undefined) returned a melting point of 137 to 138 °C. `CC(C=CC=C(C)c1cc(C(C)(C)C)cc(C(C)(C)C)c1)=CC(=O)O` registered a melting point of 196 to 198 °C.

With `CCc1cc(C)cc(C)c1CC(=O)O`, the melting point is 128 to 129 °C. As for `OC1CCc2cc3c(cc21)OCO3` (centres undefined), the figure is 92 to 94 °C. As for `O=C1N(Cc2ccc(OCc3ccccc3)cc2)c2ccccc2C12COc1cc3c(cc12)OCCO3` (centres undefined), the figure is 87 to 89 °C. Take `Brc1ccc2c(c1)COCO2`: the melting point fell in the range of 43 to 47 °C. In the case of `COc1ccccc1COc1ccc(S(=O)(=O)c2ccc(C)nc2Nc2ccc(Cl)cc2C#N)cc1` it was 178 to 180 °C; in that of `CN(C)S(=O)(=O)c1ccc(C(=O)O)c(C(F)(F)F)c1`, 189 °C; in that of `CCOC(=O)c1ccc(-c2nnc(-c3ccccc3[N+](=O)[O-])o2)cc1`, 127 to 128 °C. As for `CC(C)(C(=O)c1ccc(SCCCCS)cc1)N1CCOCC1`, the figure is 98 °C; as for `O=C(O)[C@@]1(c2ccc3ccccc3c2)CC1(c1ccccc1)c1ccccc1`, 195 to 196 °C. In the case of `CCCCCCC(C)(C)c1ccc(C2(O)CCCNC2)c(O)c1` (centres undefined), the melting point was determined as 147 °C. As for `CS(=O)(=O)c1ccc(-c2ccc(F)n2-c2ccc(F)cc2)cc1`, the figure is 140 to 141 °C; as for `COc1ccc2cccc(Br)c2c1`, 54 to 58 °C. In the case of `Cc1[nH]cnc1CCc1ccc2nc(N)sc2c1` it was 191 to 193 °C; in that of `OC1CCC2(CC1)CCC(CCc1ccoc1)CC2` (centres undefined), 66 to 69 °C; in that of `CN(C)Cc1nncn1-c1ccc(Br)cc1C(=O)c1ccccn1`, 145 to 146 °C. As for `CCOC(=O)C1=CC(CF)(CF)Oc2ccc(Cl)cc21`, the figure is 76 to 78 °C; as for `COc1cc(C=O)c([N+](=O)[O-])c(OC)c1`, 104 to 105 °C.

For the compound `CCCCCCCCOC(=O)COc1cc(F)ccc1C(=S)NCc1cccc([N+](=O)[O-])c1`, the melting point was 69 to 72 °C. In the case of `CSC1NC(=O)N(C2CCCCC2)C(=O)N1N=C(C)C` (centres undefined) it was 111 to 112 °C. As for `COc1cccc(NC(=O)c2ccccc2N)c1`, the figure is 75 to 77 °C; as for `Cc1nc2[nH]c3ccccc3c2c(N)c1C(N)=O`, 305 to 308 °C.

In the case of `CC(=O)OCCCNC(=O)C1=C(C(=O)Nc2ccc(Cl)cc2F)CCCC1`, the melting point lay within 127 to 128 °C.

Take `Cc1ccc(C2CCCCC2)n1CC[C@H]1C[C@H](O)CC(=O)O1` (relative stereo): the melting point lay within 129 to 130 °C. As to `CCc1c(F)nc(-c2ccccc2)nc1F`, the melting point was in the range of 49 to 51 °C. In the case of `N#Cc1c(N2CCCCC2)cc(-c2ccccc2)c2c1-c1ccccc1C2` it was 156 °C; in that of `CC(=O)CCN(Cc1ccccc1)Cc1ccccc1`, 58 to 59 °C; in that of `CCc1cn(C2CC(O)C(CNC(=O)C(C)Sc3ccc(Cl)cc3Cl)O2)c(=O)[nH]c1=O` (centres undefined), 218 to 220 °C.

As for `CCOc1cc(-c2cc(C(F)F)n3ncc(C(=O)O)c3n2)ccc1C(F)(F)F`, the melting point is 247 °C. On to `Cc1cc(OC[C@@H]2CCC(=O)N2)cc(C)c1-c1cccc2c1OC[C@H]2Nc1ccc2c(c1)OC[C@H]2CC(=O)O`, for which the melting point is 161 °C. In the case of `CCOc1nn(-c2ccc(C(F)(F)F)cn2)cc1CCCOc1ccc(CCC(=O)O)c(OCc2ccccc2)c1` it was 128 to 130 °C; in that of `CCCSc1cc(C(=O)O)cc(S(N)(=O)=O)c1Oc1ccccc1`, 209 to 210 °C; in that of `COc1cc2cc(C(=O)OCc3ccccc3)[nH]c2cn1`, 182 °C.

The compound `OCC1CN(Cc2ccccc2)C(c2ccccc2)O1` (centres undefined) gave a melting point of 100 °C. Compound `CCS(=O)C1CCC2C3CCC4=CC(=O)C=CC4(C)C3(F)C(O)CC21C` (centres undefined) registered a melting point of 247 to 250 °C. `O=C1c2cccc3cc4c([N+](=O)[O-])cccc4c(c23)C(=O)N1CCNCCCNCCN1C(=O)c2cccc3cc4c([N+](=O)[O-])cccc4c(c23)C1=O` had a melting point greater than 340 °C. Compound `COc1ccc(C2CNC(=O)C2)cc1OC` (centres undefined) came in with a melting point of 120 °C. With `Cc1c(SCCCN2CCN(Cc3ccc(Cl)s3)CC2)ccnc1CSc1nc2cc(F)c(F)cc2[nH]1`, the melting point was in the range of 79 to 82 °C. As to `Nc1ccc(S(=O)(=O)Nc2ccc(S(N)(=O)=O)cc2)cc1Cl`, the melting point is 197 to 198 °C. On to `COc1cc2c(cc1OC)C(C=Cc1ccccc1)=NN(C(C)=O)C(C)C2` (centres undefined), for which the melting point was in the range of 118 to 120 °C. Take `COC(=O)c1ccc(Cl)c(C)c1N`: the melting point is 72 to 74 °C. Take `O=C(CCC(=O)[C@H](Cc1ccccc1)NC(=O)c1ccccc1)N[C@@H](Cc1c[nH]c2ccccc12)C(=O)O`: the melting point fell in the range of 171 to 173 °C.

For `O=C1c2cccc3cccc(c23)C(O)N1CCN1CCN(c2ccccn2)CC1` (centres undefined), the melting point is 174 to 175 °C. With `COc1ccc(OCc2cccc(OCc3ccc4ccccc4n3)c2)c(C(=O)O)c1`, the melting point fell in the range of 248 to 249 °C.

Compound `CC12CC(O)C3(F)C(CCC4=CC(=O)C=CC43C)C1CC(O)C2=O` (centres undefined) gave a melting point of 227 to 228 °C.

With `Cc1cc(C)c(C(=O)Nc2ccccc2S(C)=O)c(I)c1` (centres undefined), the melting point was 114 °C. As for `NC(=NC(=O)c1nc(Cl)c(N)nc1N)NCCCCc1ccc(OCC(=O)N(CCO)CCO)cc1`, the figure is 114 to 116 °C; as for `C#CC1(O)CCC2(C)C(CCC3C2CCC2(C)C(C(C)=O)CCC32)C1` (centres undefined), 196 to 197 °C. As for `CC(C)c1nc(C(C)C)c(CSc2ccc(F)cc2)c(-c2ccc(F)cc2)c1CO`, the figure is 119 to 121 °C; as for `Cc1cc(-c2cccc(C(F)(F)F)c2)n2ccnc2n1`, 170 to 172 °C; as for `O=C(CCCCl)Nc1cn(-c2cccnc2)nc1Cl`, 97 to 98 °C. Regarding `COc1ccc2c(c1)S(=O)(=O)C(C#N)=C(C)N2`, the melting point is 307 to 308 °C. As for `CCCCCCCCCCCc1ccc(-c2ccc(OCC(C)CC)nn2)cc1` (centres undefined), the figure is 78 °C; as for `COC(=O)c1ccc(C#CC(O)c2cccc3c2OCCC3(C)C)cc1O` (centres undefined), 122 to 123 °C. Compound `Cc1nc2ncnn2c2c1CCN2C1CCCCCC1` yielded a melting point of 197 to 198 °C. `CCOC(=O)c1cccc2c(-c3ccc(C)cc3)nccc12` came in with a melting point of 112 °C. In turn, `CCc1cc(N(CC)C(=O)N2CCN(c3cc(C)cc(C)c3)CC2)c(OC)nc1C` registered a melting point of 84 to 85 °C. As for `CC(=O)[C@@H]1C(=O)N(C(=O)OC(C)(C)C)[C@@H]1c1ccccc1`, the figure is 63 to 64 °C; as for `CCOC(=O)Nc1nc(C)c(-c2nc3ccccc3c(=O)n2-c2cccc(C)c2)s1`, 210 to 211 °C.

Turning to `Clc1cccc2c1C1(CO1)c1ccccc1C21CO1` (centres undefined), the melting point is 85 to 92 °C. In turn, `CCOC(=O)c1cn2c(n1)CN(C(=O)OCC)c1ccccc1-2` returned a melting point of 151 to 153 °C. On to `O=S(=O)(c1ccccc1)N1CCC(C(=NCc2ccccc2)c2ccc(F)cc2)CC1`, for which the melting point is 153 to 155 °C.

`CNC(=S)NCCCCc1nccs1`: the melting point fell in the range of 130 to 132 °C. In the case of `CC(=O)Oc1c(C)c(C)c2c(c1C)CCC(C)(C=O)O2` (centres undefined) it was 88 to 90 °C.

The compound `O=C(O)COC1c2ccccc2COc2ccc(OCc3ccc4cc(Cl)ccc4n3)cc21` (centres undefined) registered a melting point of 179 to 180 °C. The compound `Cc1c(C(F)(F)F)noc1OCC(=O)O` gave a melting point of 73.5 to 76 °C. `COc1cccc(CNC(=O)c2nc3cccc(OCc4ccc(-c5nnn[nH]5)cc4)c3c(=O)[nH]2)c1`: the melting point was 227 to 229 °C. For the compound `COc1ccc(C(=O)Nc2ccccc2C(C)(O)c2ccccn2)cc1` (centres undefined), the melting point was in the range of 127 to 128 °C. As for `CNC(=NS(C)(=O)=O)Nc1ccc(C2=NNC(=O)CC2C)cc1` (centres undefined), the figure is 228 to 230 °C.
